These results are taken from patent US9120893B1, “Alkoxy polycarbonates, bisphenol monomers and methods of making and using the same” (SABIC Global Technologies B.V., priority 2014, dated 2015).

Assay [1] has as its target recombinant human estradiol receptors (rhER) beta 1 (β1) (Homo sapiens, UniProt Q92731). Kind of assay: in vitro competitive binding assay, displacement of radiolabeled 17b-estradiol, rhER beta 1. As to conditions: result in words; highest concentration 2.5×E-4 M.
For assay [2], the target named is T1, recombinant human estradiol receptors (rhER) alpha (α) (Homo sapiens, UniProt P03372).
T1 sequence (P03372 1-595): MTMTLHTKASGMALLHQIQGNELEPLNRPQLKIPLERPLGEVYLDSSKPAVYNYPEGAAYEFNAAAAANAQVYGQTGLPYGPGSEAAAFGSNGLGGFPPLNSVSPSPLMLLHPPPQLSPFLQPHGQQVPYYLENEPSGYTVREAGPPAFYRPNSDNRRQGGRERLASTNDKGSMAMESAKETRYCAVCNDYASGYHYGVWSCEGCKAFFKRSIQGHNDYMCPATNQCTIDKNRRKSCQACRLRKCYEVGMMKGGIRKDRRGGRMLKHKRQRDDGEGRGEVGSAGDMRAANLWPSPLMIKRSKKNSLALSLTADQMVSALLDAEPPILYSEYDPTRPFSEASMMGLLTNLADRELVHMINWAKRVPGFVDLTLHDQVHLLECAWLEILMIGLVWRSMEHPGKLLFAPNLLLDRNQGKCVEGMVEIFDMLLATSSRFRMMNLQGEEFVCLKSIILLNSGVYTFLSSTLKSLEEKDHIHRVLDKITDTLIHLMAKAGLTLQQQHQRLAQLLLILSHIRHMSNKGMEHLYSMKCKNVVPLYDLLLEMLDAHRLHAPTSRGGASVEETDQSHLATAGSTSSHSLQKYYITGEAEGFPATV
Briefly: in vitro competitive binding assay, displacement of radiolabeled 17b-estradiol, rhER alpha. As to conditions: result in words; highest concentration 2.5×E-4 M.

Structures are written as SMILES.

Chain of recombinant human estradiol receptors (rhER) beta 1 (β1) (Q92731 whole entry): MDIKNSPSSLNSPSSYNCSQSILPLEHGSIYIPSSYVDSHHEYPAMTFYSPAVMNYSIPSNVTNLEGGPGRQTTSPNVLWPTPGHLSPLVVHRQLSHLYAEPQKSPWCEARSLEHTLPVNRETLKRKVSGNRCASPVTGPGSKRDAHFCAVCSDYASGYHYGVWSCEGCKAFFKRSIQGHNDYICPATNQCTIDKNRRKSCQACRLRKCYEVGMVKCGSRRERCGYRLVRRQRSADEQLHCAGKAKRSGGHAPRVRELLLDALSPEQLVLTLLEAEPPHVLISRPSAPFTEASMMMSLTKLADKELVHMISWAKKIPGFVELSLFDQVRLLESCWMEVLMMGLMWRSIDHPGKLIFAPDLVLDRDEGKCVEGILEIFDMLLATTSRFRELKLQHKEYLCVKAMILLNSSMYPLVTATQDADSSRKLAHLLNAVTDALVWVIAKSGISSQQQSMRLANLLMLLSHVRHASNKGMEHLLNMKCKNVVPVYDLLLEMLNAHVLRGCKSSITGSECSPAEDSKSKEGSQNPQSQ

Regarding `COc1cc(C(C)(C)c2ccc(O)c(OC)c2)ccc1O` [compound 1, 4,4′ (2,2′-isoPropylidene)-Bis(ortho Methoxy)Phenol (PBMP)], the “estradiol binding activity, beta receptor binding” value in assay [1] is “no estradiol binding activity”. Further, the “estradiol binding activity, alpha receptor binding” value in assay [2] is listed as “no estradiol binding activity”.
